Reference: PubChem BioAssay (NCI)
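Results reflect a 48-hour exposure of cells in 96-well plates to compound at five concentrations. Here, GI50 denotes the concentration required for 50% inhibition of growth. TGI marks complete inhibition of growth.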

Legend:
Experiment in all cases: inhibition of tumour cell growth, NCI panel, 48 h
MALME-3M melanoma = test system: MALME-3M melanoma
SK-MEL-28 melanoma = test system: SK-MEL-28 melanoma
SW-620 colon = test system: SW-620 colon
SR leukemia = test system: SR leukemia
CCRF-CEM leukemia = test system: CCRF-CEM leukemia
OVCAR-8 ovarian = test system: OVCAR-8 ovarian
K-562 leukemia = test system: K-562 leukemia
IGROV1 ovarian = test system: IGROV1 ovarian
LOX IMVI melanoma = test system: LOX IMVI melanoma
NCI-H23 lung = test system: NCI-H23 lung
NCI-H460 lung = test system: NCI-H460 lung
HCT-116 colon = test system: HCT-116 colon
HL-60(TB) leukemia = test system: HL-60(TB) leukemia
M19-MEL melanoma = test system: M19-MEL melanoma
UACC-257 melanoma = test system: UACC-257 melanoma
SK-MEL-5 melanoma = test system: SK-MEL-5 melanoma
HOP-62 NSCLC = test system: HOP-62 NSCLC
TK-10 renal = test system: TK-10 renal
UO-31 renal = test system: UO-31 renal
KM12 colon = test system: KM12 colon
KM20L2 colon = test system: KM20L2 colon
HCC-2998 colon = test system: HCC-2998 colon
SF-539 CNS = test system: SF-539 CNS
U251 CNS = test system: U251 CNS
LXFL 529 NSCLC = test system: LXFL 529 NSCLC
EKVX NSCLC = test system: EKVX NSCLC
SNB-19 CNS = test system: SNB-19 CNS
DMS 273 small cell lung = test system: DMS 273 small cell lung
HCT-15 colon = test system: HCT-15 colon
COLO 205 colon = test system: COLO 205 colon
ACHN renal = test system: ACHN renal
SF-295 CNS = test system: SF-295 CNS
DMS 114 small cell lung = test system: DMS 114 small cell lung
SK-OV-3 ovarian = test system: SK-OV-3 ovarian
RPMI-8226 leukemia = test system: RPMI-8226 leukemia
SF-268 CNS = test system: SF-268 CNS
MOLT-4 leukemia = test system: MOLT-4 leukemia
XF 498 CNS = test system: XF 498 CNS
A549 NSCLC = test system: A549 NSCLC
OVCAR-3 ovarian = test system: OVCAR-3 ovarian
NCI-H226 lung = test system: NCI-H226 lung
NCI-H522 lung = test system: NCI-H522 lung
HT29 colon = test system: HT29 colon
786-0 renal = test system: 786-0 renal
M14 melanoma = test system: M14 melanoma
SK-MEL-2 melanoma = test system: SK-MEL-2 melanoma
HOP-92 NSCLC = test system: HOP-92 NSCLC
A498 renal = test system: A498 renal
SNB-75 CNS = test system: SNB-75 CNS
PC-3 prostate = test system: PC-3 prostate
SNB-78 CNS = test system: SNB-78 CNS
UACC-62 melanoma = test system: UACC-62 melanoma
HS 578T breast = test system: HS 578T breast
DU-145 prostate = test system: DU-145 prostate
MDA-MB-435 = test system: MDA-MB-435
CAKI-1 renal = test system: CAKI-1 renal
OVCAR-4 ovarian = test system: OVCAR-4 ovarian
RXF 393 renal = test system: RXF 393 renal
OVCAR-5 ovarian = test system: OVCAR-5 ovarian
BT-549 breast = test system: BT-549 breast
MDA-MB-231 breast = test system: MDA-MB-231 breast
MCF7 breast = test system: MCF7 breast
T-47D breast = test system: T-47D breast
NCI/ADR-RES ovarian = test system: NCI/ADR-RES ovarian
DLD-1 colon = test system: DLD-1 colon
SN12C renal = test system: SN12C renal
MDA-N = test system: MDA-N

Oc1cccc2c1NC1=C(CCC/C1=C\c1ccccc1)C2
TGI (MALME-3M melanoma): > 100 µM | TGI (SK-MEL-28 melanoma): > 100 µM | TGI (SW-620 colon): > 100 µM | TGI (SR leukemia): > 100 µM | TGI (CCRF-CEM leukemia): > 100 µM | TGI (OVCAR-8 ovarian): > 100 µM | TGI (K-562 leukemia): > 100 µM | TGI (IGROV1 ovarian): > 100 µM | TGI (LOX IMVI melanoma): > 100 µM | TGI (NCI-H23 lung): > 100 µM | TGI (NCI-H460 lung): > 100 µM | TGI (HCT-116 colon): > 100 µM | TGI (HL-60(TB) leukemia): > 100 µM | TGI (M19-MEL melanoma): > 100 µM | TGI (UACC-257 melanoma): > 100 µM | TGI (SK-MEL-5 melanoma): > 100 µM | TGI (HOP-62 NSCLC): > 100 µM | TGI (TK-10 renal): > 100 µM | TGI (UO-31 renal): > 100 µM | TGI (KM12 colon): > 100 µM | TGI (KM20L2 colon): > 100 µM | TGI (HCC-2998 colon): > 100 µM | TGI (SF-539 CNS): > 100 µM | TGI (U251 CNS): > 100 µM | TGI (LXFL 529 NSCLC): > 100 µM | TGI (EKVX NSCLC): > 100 µM | TGI (SNB-19 CNS): > 100 µM | TGI (DMS 273 small cell lung): > 100 µM | TGI (HCT-15 colon): > 100 µM | TGI (COLO 205 colon): > 100 µM | TGI (ACHN renal): > 100 µM | TGI (SF-295 CNS): > 100 µM | TGI (DMS 114 small cell lung): > 100 µM | TGI (SK-OV-3 ovarian): > 100 µM | TGI (RPMI-8226 leukemia): > 100 µM | TGI (SF-268 CNS): > 100 µM | TGI (MOLT-4 leukemia): > 100 µM | TGI (XF 498 CNS): > 100 µM | TGI (A549 NSCLC): > 100 µM | TGI (OVCAR-3 ovarian): > 100 µM | TGI (NCI-H226 lung): > 100 µM | TGI (NCI-H522 lung): 83.5 µM | TGI (HT29 colon): > 100 µM | TGI (786-0 renal): > 100 µM | TGI (M14 melanoma): > 100 µM

CCN1C(=O)C/C(=C\C(C)=O)Nc2ccccc21
TGI (MALME-3M melanoma): > 100 µM | TGI (SK-MEL-28 melanoma): > 100 µM | TGI (SW-620 colon): > 100 µM | TGI (SK-MEL-2 melanoma): > 100 µM | TGI (SR leukemia): > 100 µM | TGI (HOP-92 NSCLC): > 100 µM | GI50 (A498 renal): > 100 µM | TGI (A498 renal): > 100 µM | TGI (CCRF-CEM leukemia): > 100 µM | TGI (OVCAR-8 ovarian): > 100 µM | TGI (K-562 leukemia): > 100 µM | TGI (SNB-75 CNS): > 67.1 µM | GI50 (PC-3 prostate): > 100 µM | TGI (PC-3 prostate): > 100 µM | TGI (IGROV1 ovarian): > 100 µM | TGI (LOX IMVI melanoma): > 100 µM | TGI (NCI-H23 lung): > 100 µM | TGI (NCI-H460 lung): > 100 µM | TGI (SNB-78 CNS): > 100 µM | TGI (HCT-116 colon): > 100 µM | TGI (UACC-62 melanoma): > 100 µM | GI50 (HL-60(TB) leukemia): > 100 µM | TGI (HL-60(TB) leukemia): > 100 µM | GI50 (HS 578T breast): > 100 µM | TGI (HS 578T breast): > 100 µM | GI50 (DU-145 prostate): > 100 µM | TGI (DU-145 prostate): > 100 µM | GI50 (MDA-MB-435): > 100 µM | TGI (MDA-MB-435): > 100 µM | TGI (M19-MEL melanoma): > 100 µM | TGI (CAKI-1 renal): > 100 µM | GI50 (UACC-257 melanoma): > 100 µM | TGI (UACC-257 melanoma): > 100 µM | TGI (OVCAR-4 ovarian): > 100 µM | TGI (SK-MEL-5 melanoma): > 31.6 µM | TGI (HOP-62 NSCLC): > 100 µM | TGI (TK-10 renal): > 100 µM | TGI (RXF 393 renal): > 100 µM | TGI (UO-31 renal): > 100 µM | TGI (KM12 colon): > 100 µM | TGI (HCC-2998 colon): > 100 µM | TGI (OVCAR-5 ovarian): > 100 µM | TGI (SF-539 CNS): > 100 µM | TGI (U251 CNS): > 100 µM | TGI (LXFL 529 NSCLC): > 100 µM | TGI (EKVX NSCLC): > 100 µM | TGI (SNB-19 CNS): > 100 µM | GI50 (BT-549 breast): > 100 µM | TGI (BT-549 breast): > 100 µM | TGI (DMS 273 small cell lung): > 100 µM | GI50 (HCT-15 colon): > 100 µM | TGI (HCT-15 colon): > 100 µM | TGI (COLO 205 colon): > 100 µM | GI50 (ACHN renal): > 100 µM | TGI (ACHN renal): > 100 µM | TGI (SF-295 CNS): > 100 µM | TGI (DMS 114 small cell lung): > 100 µM | GI50 (MDA-MB-231 breast): > 100 µM | TGI (MDA-MB-231 breast): > 100 µM | TGI (SK-OV-3 ovarian): > 100 µM | GI50 (RPMI-8226 leukemia): > 100 µM | TGI (RPMI-8226 leukemia): > 100 µM | TGI (SF-268 CNS): > 100 µM | GI50 (MCF7 breast): > 100 µM | TGI (MCF7 breast): > 100 µM | TGI (MOLT-4 leukemia): > 100 µM | TGI (XF 498 CNS): > 100 µM | GI50 (T-47D breast): > 100 µM | TGI (T-47D breast): > 100 µM | TGI (A549 NSCLC): > 100 µM | TGI (OVCAR-3 ovarian): > 100 µM | TGI (NCI-H226 lung): > 100 µM | GI50 (NCI/ADR-RES ovarian): > 100 µM | TGI (NCI/ADR-RES ovarian): > 100 µM | TGI (NCI-H522 lung): > 100 µM | TGI (DLD-1 colon): 44.7 µM | TGI (HT29 colon): > 100 µM | TGI (786-0 renal): > 100 µM | TGI (M14 melanoma): > 100 µM

CCOc1c2ccsc2c(OCC)c2ccsc12
TGI (MALME-3M melanoma): > 100 µM | TGI (SK-MEL-28 melanoma): > 100 µM | TGI (SW-620 colon): > 100 µM | TGI (SK-MEL-2 melanoma): > 100 µM | TGI (SN12C renal): > 100 µM | TGI (SR leukemia): > 100 µM | TGI (HOP-92 NSCLC): 86.2 µM | TGI (A498 renal): > 100 µM | TGI (CCRF-CEM leukemia): > 100 µM | TGI (OVCAR-8 ovarian): > 100 µM | TGI (K-562 leukemia): > 100 µM | TGI (SNB-75 CNS): > 28.3 µM | TGI (PC-3 prostate): > 100 µM | TGI (IGROV1 ovarian): > 100 µM | TGI (LOX IMVI melanoma): 23 µM | TGI (NCI-H23 lung): > 78 µM | TGI (NCI-H460 lung): > 100 µM | TGI (HCT-116 colon): > 100 µM | TGI (UACC-62 melanoma): > 100 µM | TGI (HL-60(TB) leukemia): 7.43 µM | TGI (HS 578T breast): > 73.7 µM | TGI (DU-145 prostate): > 100 µM | TGI (MDA-MB-435): 3.15 µM | TGI (CAKI-1 renal): > 100 µM | TGI (UACC-257 melanoma): > 100 µM | TGI (OVCAR-4 ovarian): > 100 µM | TGI (SK-MEL-5 melanoma): > 29.5 µM | TGI (HOP-62 NSCLC): > 100 µM | TGI (TK-10 renal): > 100 µM | TGI (RXF 393 renal): > 24.2 µM | TGI (UO-31 renal): > 100 µM | TGI (KM12 colon): > 100 µM | TGI (HCC-2998 colon): > 75.5 µM | TGI (OVCAR-5 ovarian): > 100 µM | TGI (SF-539 CNS): 9.79 µM | TGI (U251 CNS): > 100 µM | TGI (EKVX NSCLC): > 100 µM | TGI (SNB-19 CNS): > 100 µM | TGI (BT-549 breast): > 100 µM | TGI (HCT-15 colon): > 30.7 µM | TGI (COLO 205 colon): > 41.1 µM | TGI (ACHN renal): > 100 µM | TGI (SF-295 CNS): 9.84 µM | TGI (MDA-N): 4.83 µM | TGI (MDA-MB-231 breast): > 100 µM | TGI (SK-OV-3 ovarian): > 100 µM | TGI (RPMI-8226 leukemia): > 100 µM | TGI (SF-268 CNS): > 100 µM | TGI (MCF7 breast): 31.7 µM | TGI (MOLT-4 leukemia): > 28.5 µM | TGI (T-47D breast): > 100 µM | TGI (A549 NSCLC): > 100 µM | TGI (OVCAR-3 ovarian): 61.1 µM | TGI (NCI-H226 lung): > 100 µM | TGI (NCI/ADR-RES ovarian): > 100 µM | TGI (NCI-H522 lung): > 28.9 µM | TGI (HT29 colon): > 36 µM | TGI (786-0 renal): > 100 µM | TGI (M14 melanoma): > 100 µM
